According to ChEMBL document CHEMBL3991601, “The target landscape of clinical kinase drugs” (Science, 2017):
Activity calls are given as the source filed them. For most assays here, no stated cut-off is given here; in the data, actives have a measured Kd and inactives only a lower limit.

Columns and labels:
[1] = molecular target: T1, Discoidin domain-containing receptor 2 (Homo sapiens, UniProt Q16832)
T1 sequence (Q16832 whole entry): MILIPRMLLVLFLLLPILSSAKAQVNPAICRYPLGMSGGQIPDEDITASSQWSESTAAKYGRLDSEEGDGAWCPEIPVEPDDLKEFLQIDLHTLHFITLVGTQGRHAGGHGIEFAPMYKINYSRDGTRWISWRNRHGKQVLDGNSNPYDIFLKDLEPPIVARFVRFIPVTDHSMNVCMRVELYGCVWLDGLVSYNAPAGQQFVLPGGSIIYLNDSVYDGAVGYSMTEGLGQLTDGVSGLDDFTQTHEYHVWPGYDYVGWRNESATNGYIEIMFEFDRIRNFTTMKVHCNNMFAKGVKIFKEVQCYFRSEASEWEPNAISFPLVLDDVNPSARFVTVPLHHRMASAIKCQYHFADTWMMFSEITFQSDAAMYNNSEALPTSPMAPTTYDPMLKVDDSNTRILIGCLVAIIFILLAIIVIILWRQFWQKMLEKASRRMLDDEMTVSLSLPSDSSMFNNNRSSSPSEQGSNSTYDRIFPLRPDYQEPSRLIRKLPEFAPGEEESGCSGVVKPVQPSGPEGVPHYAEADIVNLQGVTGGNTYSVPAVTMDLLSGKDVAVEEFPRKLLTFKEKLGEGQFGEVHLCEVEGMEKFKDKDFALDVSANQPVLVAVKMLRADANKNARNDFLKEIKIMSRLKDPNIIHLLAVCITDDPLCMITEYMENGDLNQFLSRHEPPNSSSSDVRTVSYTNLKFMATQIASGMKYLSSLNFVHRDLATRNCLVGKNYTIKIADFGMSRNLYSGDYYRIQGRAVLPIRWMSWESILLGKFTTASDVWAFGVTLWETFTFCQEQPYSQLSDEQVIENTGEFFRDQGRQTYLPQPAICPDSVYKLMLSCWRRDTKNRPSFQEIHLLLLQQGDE

[2] = molecular target: S-adenosylmethionine synthase isoform type-2 (Homo sapiens, UniProt P31153)
Sequence of S-adenosylmethionine synthase isoform type-2 (P31153 whole entry, canonical isoform): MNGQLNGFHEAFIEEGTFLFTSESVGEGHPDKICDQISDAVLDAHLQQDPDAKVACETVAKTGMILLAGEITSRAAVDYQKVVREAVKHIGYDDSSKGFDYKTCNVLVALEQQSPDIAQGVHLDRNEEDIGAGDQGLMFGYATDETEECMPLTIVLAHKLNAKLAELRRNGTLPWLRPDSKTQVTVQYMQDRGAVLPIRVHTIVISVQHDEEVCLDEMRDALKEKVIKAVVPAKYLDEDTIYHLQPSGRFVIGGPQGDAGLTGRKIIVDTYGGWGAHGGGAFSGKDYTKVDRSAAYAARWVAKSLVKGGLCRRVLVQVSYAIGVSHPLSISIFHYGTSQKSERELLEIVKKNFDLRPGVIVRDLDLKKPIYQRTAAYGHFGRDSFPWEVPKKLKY

[3] = molecular target: Ribosomal protein S6 kinase alpha-5 (Homo sapiens, UniProt O75582)
Sequence of Ribosomal protein S6 kinase alpha-5 (O75582 whole entry): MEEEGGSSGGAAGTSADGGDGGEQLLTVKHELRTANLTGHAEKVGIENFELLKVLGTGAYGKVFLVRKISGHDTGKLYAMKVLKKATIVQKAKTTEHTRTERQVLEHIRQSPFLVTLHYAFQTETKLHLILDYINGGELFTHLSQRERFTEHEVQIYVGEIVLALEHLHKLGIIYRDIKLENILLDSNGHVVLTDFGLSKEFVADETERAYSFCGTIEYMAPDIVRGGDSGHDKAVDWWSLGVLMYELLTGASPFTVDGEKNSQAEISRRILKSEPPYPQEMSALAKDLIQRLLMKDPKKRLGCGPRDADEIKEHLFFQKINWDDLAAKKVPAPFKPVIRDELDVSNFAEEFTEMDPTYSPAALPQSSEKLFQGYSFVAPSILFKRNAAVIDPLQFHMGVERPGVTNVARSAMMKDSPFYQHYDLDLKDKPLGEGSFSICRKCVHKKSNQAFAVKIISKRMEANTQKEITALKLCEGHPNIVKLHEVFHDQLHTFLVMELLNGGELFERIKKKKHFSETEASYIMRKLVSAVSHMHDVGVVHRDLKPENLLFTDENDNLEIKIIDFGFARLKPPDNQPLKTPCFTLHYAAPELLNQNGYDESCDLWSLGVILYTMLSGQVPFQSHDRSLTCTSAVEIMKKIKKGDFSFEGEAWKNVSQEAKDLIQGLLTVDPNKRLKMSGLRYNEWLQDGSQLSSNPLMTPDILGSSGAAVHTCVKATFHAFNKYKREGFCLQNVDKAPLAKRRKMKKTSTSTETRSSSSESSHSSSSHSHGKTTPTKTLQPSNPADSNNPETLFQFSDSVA

[4] = molecular target: T2, Serine/threonine-protein kinase D2 (Homo sapiens, UniProt Q9BZL6)
T2 sequence (Q9BZL6 whole entry): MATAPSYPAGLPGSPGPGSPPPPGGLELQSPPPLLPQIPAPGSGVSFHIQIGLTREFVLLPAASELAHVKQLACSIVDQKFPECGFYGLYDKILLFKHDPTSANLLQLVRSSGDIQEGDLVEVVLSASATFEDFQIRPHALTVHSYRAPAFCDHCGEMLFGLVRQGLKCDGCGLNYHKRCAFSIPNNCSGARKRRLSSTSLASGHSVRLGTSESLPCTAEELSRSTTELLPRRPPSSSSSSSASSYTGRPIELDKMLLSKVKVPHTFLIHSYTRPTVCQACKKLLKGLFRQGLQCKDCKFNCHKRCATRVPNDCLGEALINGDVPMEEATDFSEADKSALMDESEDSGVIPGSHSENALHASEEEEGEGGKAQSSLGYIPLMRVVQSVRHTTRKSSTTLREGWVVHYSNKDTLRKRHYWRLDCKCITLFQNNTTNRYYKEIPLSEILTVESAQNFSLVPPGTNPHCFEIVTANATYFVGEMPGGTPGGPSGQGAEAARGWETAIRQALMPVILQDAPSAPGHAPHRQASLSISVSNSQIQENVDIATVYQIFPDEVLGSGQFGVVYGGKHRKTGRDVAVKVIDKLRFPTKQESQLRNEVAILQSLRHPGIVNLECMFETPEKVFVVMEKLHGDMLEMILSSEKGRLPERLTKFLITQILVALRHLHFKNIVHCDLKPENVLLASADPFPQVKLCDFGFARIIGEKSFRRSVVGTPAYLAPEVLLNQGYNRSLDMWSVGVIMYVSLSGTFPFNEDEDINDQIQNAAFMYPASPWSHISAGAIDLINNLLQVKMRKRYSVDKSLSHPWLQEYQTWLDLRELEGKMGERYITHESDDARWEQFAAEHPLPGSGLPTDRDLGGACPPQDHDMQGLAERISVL

[5] = molecular target: Serine/threonine-protein kinase SIK3 (Homo sapiens, UniProt Q9Y2K2)
Sequence of Serine/threonine-protein kinase SIK3 (Q9Y2K2 whole entry): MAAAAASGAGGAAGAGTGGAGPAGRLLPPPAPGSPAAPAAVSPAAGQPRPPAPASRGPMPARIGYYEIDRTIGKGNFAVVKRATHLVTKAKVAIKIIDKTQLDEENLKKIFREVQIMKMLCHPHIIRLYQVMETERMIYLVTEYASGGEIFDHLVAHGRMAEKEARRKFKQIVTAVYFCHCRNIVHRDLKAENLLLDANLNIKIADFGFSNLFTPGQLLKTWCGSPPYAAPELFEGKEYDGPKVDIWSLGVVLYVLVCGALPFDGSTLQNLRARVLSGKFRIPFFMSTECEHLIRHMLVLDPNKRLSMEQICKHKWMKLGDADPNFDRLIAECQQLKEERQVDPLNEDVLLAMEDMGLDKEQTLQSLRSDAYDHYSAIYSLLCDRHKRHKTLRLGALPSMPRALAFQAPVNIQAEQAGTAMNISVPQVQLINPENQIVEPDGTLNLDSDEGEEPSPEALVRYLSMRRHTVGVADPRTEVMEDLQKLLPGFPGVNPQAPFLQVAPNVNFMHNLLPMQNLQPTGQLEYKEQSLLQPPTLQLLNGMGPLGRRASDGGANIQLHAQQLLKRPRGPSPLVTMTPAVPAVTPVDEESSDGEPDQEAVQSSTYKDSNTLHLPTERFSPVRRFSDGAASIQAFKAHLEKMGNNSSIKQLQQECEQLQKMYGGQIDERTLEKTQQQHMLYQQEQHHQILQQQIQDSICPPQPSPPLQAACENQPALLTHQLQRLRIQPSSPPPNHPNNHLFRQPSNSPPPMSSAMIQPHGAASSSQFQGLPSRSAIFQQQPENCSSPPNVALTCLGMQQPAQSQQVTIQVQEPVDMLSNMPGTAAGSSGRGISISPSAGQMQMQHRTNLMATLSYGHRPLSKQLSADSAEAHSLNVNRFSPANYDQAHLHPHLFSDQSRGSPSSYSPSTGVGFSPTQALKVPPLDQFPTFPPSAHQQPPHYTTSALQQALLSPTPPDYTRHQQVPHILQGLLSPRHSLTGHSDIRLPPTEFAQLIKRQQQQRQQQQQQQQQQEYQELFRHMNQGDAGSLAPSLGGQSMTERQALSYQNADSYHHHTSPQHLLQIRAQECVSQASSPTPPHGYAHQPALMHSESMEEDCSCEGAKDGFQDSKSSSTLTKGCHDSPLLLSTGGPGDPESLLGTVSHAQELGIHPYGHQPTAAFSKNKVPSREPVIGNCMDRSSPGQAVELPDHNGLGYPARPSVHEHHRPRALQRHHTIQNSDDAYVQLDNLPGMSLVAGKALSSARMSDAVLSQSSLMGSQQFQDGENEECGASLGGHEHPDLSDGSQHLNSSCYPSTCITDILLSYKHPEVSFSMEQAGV

[6] = molecular target: Interleukin-1 receptor-associated kinase 1 (Homo sapiens, UniProt P51617)
Sequence of Interleukin-1 receptor-associated kinase 1 (P51617 whole entry): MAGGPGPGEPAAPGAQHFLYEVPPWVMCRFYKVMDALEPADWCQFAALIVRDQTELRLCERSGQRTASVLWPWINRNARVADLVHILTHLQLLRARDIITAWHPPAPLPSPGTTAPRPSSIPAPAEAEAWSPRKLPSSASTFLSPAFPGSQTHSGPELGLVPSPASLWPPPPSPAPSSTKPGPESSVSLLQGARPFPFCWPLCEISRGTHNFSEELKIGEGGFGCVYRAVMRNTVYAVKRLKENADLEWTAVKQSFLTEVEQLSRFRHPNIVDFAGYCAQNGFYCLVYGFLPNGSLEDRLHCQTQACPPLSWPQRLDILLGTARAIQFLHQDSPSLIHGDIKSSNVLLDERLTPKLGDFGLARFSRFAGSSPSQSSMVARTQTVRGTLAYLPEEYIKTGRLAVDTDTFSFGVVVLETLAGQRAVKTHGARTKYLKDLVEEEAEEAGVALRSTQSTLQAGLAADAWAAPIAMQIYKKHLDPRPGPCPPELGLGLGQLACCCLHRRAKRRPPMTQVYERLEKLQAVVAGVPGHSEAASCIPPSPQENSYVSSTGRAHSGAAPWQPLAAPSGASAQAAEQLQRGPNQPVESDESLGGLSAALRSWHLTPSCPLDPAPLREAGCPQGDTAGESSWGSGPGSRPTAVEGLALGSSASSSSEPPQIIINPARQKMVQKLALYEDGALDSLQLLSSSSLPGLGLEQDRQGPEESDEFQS

[7] = molecular target: Cyclin-dependent kinase 13 (Homo sapiens, UniProt Q14004)
Sequence of Cyclin-dependent kinase 13 (Q14004 whole entry): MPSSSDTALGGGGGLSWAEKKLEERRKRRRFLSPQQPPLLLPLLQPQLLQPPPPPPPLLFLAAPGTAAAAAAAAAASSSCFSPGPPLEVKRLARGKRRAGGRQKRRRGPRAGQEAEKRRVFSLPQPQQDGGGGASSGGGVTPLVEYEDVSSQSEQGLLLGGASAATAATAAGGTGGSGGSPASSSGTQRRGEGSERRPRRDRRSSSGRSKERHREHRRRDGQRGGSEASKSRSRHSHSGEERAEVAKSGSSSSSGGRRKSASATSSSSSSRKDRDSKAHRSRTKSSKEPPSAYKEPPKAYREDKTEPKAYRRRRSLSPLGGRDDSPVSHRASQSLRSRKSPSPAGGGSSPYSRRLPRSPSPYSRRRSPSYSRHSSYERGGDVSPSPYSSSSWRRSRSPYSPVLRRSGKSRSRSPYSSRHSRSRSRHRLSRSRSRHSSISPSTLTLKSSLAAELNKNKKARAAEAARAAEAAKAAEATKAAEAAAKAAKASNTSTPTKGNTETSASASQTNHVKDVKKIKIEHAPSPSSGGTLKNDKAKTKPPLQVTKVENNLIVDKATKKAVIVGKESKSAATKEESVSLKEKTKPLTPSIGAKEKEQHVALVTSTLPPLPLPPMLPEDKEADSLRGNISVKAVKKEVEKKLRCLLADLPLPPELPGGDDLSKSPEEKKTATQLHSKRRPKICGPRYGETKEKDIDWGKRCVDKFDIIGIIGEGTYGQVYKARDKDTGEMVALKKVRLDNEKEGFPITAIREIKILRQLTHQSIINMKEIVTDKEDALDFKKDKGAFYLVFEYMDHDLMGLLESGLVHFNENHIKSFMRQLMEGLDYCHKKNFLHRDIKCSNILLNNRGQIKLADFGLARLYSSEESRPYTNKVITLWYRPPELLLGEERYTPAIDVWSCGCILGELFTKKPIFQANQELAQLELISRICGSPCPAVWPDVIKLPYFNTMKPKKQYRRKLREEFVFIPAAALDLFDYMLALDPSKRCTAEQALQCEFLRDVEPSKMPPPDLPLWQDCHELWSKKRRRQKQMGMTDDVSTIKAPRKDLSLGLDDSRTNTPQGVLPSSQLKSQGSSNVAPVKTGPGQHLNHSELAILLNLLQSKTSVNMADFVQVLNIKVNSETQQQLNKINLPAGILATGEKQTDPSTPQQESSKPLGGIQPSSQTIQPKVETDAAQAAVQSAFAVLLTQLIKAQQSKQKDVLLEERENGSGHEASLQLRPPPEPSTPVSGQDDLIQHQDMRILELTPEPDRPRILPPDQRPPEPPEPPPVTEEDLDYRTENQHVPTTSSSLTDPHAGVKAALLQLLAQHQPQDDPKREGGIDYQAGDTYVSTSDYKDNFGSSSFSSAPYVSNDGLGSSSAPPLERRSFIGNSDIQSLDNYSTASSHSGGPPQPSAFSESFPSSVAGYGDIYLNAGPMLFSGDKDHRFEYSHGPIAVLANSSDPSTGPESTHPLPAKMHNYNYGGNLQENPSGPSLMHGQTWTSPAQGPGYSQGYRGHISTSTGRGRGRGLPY

[8] = molecular target: T3, Serine/threonine-protein kinase Nek3 (Homo sapiens, UniProt P51956)
T3 sequence (P51956 whole entry): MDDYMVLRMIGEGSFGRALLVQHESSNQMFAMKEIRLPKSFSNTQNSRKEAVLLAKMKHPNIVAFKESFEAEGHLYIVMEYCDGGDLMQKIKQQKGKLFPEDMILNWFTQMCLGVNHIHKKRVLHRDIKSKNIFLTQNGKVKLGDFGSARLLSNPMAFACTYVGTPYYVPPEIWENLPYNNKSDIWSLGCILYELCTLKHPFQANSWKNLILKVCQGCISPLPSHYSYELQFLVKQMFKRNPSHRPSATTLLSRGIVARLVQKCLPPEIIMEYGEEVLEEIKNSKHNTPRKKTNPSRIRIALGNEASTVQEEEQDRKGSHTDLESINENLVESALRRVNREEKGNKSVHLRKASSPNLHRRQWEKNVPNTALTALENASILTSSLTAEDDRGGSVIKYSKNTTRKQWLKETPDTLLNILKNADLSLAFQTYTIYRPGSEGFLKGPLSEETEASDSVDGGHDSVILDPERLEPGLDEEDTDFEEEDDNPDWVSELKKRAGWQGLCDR

SMILES | Kd [1] | Kd [2] | Kd [3] | Kd [4] | Kd [5] | Kd [6] | Kd [7] | Kd [8]
CO[C@H]1C[C@@H]2CC[C@@H](C)[C@@](O)(O2)C(=O)C(=O)N2CCCC[C@H]2C(=O)O[C@H]([C@H](C)C[C@@H]2CC[C@@H](OCCO)[C@H](OC)C2)CC(=O)[C@H](C)/C=C(\C)[C@@H](O)[C@@H](OC)C(=O)[C@H](C)C[C@H](C)/C=C/C=C/C=C/1C [EVEROLIMUS] | > 30 µM (inactive) | > 30 µM (inactive) | > 30 µM (inactive) | > 30 µM (inactive) | > 30 µM (inactive) | > 30 µM (inactive) | > 30 µM (inactive) | > 30 µM (inactive)
CN1N=C(N)c2cn([C@@H]3O[C@H](COP(=O)(O)O)[C@@H](O)[C@H]3O)c3ncnc1c23 [TRICIRIBINE PHOSPHATE] | > 30 µM (inactive) | > 30 µM (inactive) | > 30 µM (inactive) | > 30 µM (inactive) | > 30 µM (inactive) | > 30 µM (inactive) | > 30 µM (inactive) | > 30 µM (inactive)
CCc1cnn2c(NCc3ccc[n+]([O-])c3)cc(N3CCCC[C@H]3CCO)nc12 [DINACICLIB] | > 30 µM (inactive) | > 30 µM (inactive) | > 30 µM (inactive) | > 30 µM (inactive) | > 30 µM (inactive) | > 30 µM (inactive) | 0.021 µM (active) | > 30 µM (inactive)
C=CC(=O)N1CCC(Oc2cc3c(Nc4ccc(Cl)c(Cl)c4F)ncnc3cc2OC)CC1 [POZIOTINIB] | > 30 µM (inactive) | > 30 µM (inactive) | > 30 µM (inactive) | > 30 µM (inactive) | > 30 µM (inactive) | > 30 µM (inactive) | > 30 µM (inactive) | > 30 µM (inactive)
CN1CC[C@@H](c2c(O)cc(O)c3c(=O)cc(-c4ccccc4Cl)oc23)[C@@H]1CO | > 30 µM (inactive) | > 30 µM (inactive) | > 30 µM (inactive) | > 30 µM (inactive) | > 30 µM (inactive) | > 30 µM (inactive) | > 30 µM (inactive) | > 30 µM (inactive)
C1=C/COCc2cc(ccc2OCCN2CCCC2)Nc2nccc(n2)-c2cccc(c2)COC/1 [PACRITINIB] | > 30 µM (inactive) | > 30 µM (inactive) | > 30 µM (inactive) | > 30 µM (inactive) | > 30 µM (inactive) | 0.258 µM (active) | > 30 µM (inactive) | > 30 µM (inactive)
COc1cc(N2CCC(N3CCN(C)CC3)CC2)ccc1Nc1ncnc(Nc2ccccc2S(=O)(=O)C(C)C)n1 [ASP-3026] | > 30 µM (inactive) | > 30 µM (inactive) | > 30 µM (inactive) | 2.67 µM (active) | > 30 µM (inactive) | > 30 µM (inactive) | > 30 µM (inactive) | > 30 µM (inactive)
CNC(=O)CN1CCC(Oc2cc3c(Nc4cccc(Cl)c4F)ncnc3cc2OC)CC1 [SAPITINIB] | > 30 µM (inactive) | > 30 µM (inactive) | > 30 µM (inactive) | > 30 µM (inactive) | > 30 µM (inactive) | > 30 µM (inactive) | > 30 µM (inactive) | > 30 µM (inactive)
Cc1ccc(S(=O)(=O)Nc2nc3ccccc3nc2Nc2ccc3nsnc3c2)cc1 | > 30 µM (inactive) | > 30 µM (inactive) | > 30 µM (inactive) | > 30 µM (inactive) | > 30 µM (inactive) | > 30 µM (inactive) | > 30 µM (inactive) | > 30 µM (inactive)
N[C@@H]1CCCN(c2c(/C=C3\SC(=O)NC3=O)cccc2-c2ccccc2)C1 | > 30 µM (inactive) | > 30 µM (inactive) | > 30 µM (inactive) | > 30 µM (inactive) | > 30 µM (inactive) | > 30 µM (inactive) | > 30 µM (inactive) | > 30 µM (inactive)
CN1CCC(COc2cnc(-c3cccc(Cn4nc(-c5cccc(C#N)c5)ccc4=O)c3)nc2)CC1 [TEPOTINIB] | > 30 µM (inactive) | > 30 µM (inactive) | > 30 µM (inactive) | > 30 µM (inactive) | > 30 µM (inactive) | > 30 µM (inactive) | > 30 µM (inactive) | > 30 µM (inactive)

Second part, the molecule after the results:

Kd [1] | Kd [2] | Kd [3] | Kd [4] | Kd [5] | Kd [6] | Kd [7] | Kd [8] | SMILES
> 30 µM (inactive) | > 30 µM (inactive) | > 30 µM (inactive) | > 30 µM (inactive) | > 30 µM (inactive) | > 30 µM (inactive) | > 30 µM (inactive) | > 30 µM (inactive) | C[C@@H](Nc1cc(F)cc(F)c1)c1cc(C(=O)N(C)C)cc2c(=O)cc(N3CCOCC3)oc12 [AZD-8186]
> 30 µM (inactive) | > 30 µM (inactive) | > 30 µM (inactive) | > 30 µM (inactive) | > 30 µM (inactive) | > 30 µM (inactive) | > 30 µM (inactive) | > 30 µM (inactive) | OCCn1cc(-c2cnc3nnn(Cc4ccc5ncccc5c4)c3n2)cn1 [PF-04217903]
> 30 µM (inactive) | > 30 µM (inactive) | > 30 µM (inactive) | > 30 µM (inactive) | > 30 µM (inactive) | > 30 µM (inactive) | > 30 µM (inactive) | > 30 µM (inactive) | O=c1sn(-c2cccc3ccccc23)c(=O)n1Cc1ccccc1 [TIDEGLUSIB]
> 30 µM (inactive) | > 30 µM (inactive) | > 30 µM (inactive) | 6.34 µM (active) | > 30 µM (inactive) | > 30 µM (inactive) | > 30 µM (inactive) | > 30 µM (inactive) | CC(C)Nc1cc(-c2c[nH]c(C(=O)N[C@H](CO)c3cccc(Cl)c3)c2)c(Cl)cn1 [ULIXERTINIB]
> 30 µM (inactive) | > 30 µM (inactive) | > 30 µM (inactive) | > 30 µM (inactive) | > 30 µM (inactive) | > 30 µM (inactive) | > 30 µM (inactive) | > 30 µM (inactive) | C[C@@H]1CN(Cc2ccc(F)cc2)[C@@H](C)CN1C(=O)c1cc2c(C(=O)C(=O)N(C)C)cn(C)c2cc1Cl [TALMAPIMOD]
> 30 µM (inactive) | > 30 µM (inactive) | > 30 µM (inactive) | > 30 µM (inactive) | > 30 µM (inactive) | > 30 µM (inactive) | > 30 µM (inactive) | > 30 µM (inactive) | CNC(=O)c1ccc(-c2cnc3ncc(Cc4ccc5ncccc5c4)n3n2)cc1F [CAPMATINIB]
